Source: patent US7846959B2, “Raf modulators and methods of use” (Exelixis, Inc., priority 2004, dated 2010)

Legend:
c-Raf = c-Raf (Homo sapiens, UniProt P04049); test: Luciferase-coupled chemiluminescence kinase assay (ATP consumption), c-Raf; type: biochemical; settings: read-out: cRaf-1 IC50
Procedure, shortened: (§1)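 ATP depletion, limited to 25-60%, read by luciferase-luciferin chemiluminescence gives IC50 values. Before the 3 hr ambient-temperature kinase reaction with ATP, compound and […] enzyme were preincubated 30 minutes at room temperature in Tris pH 7.5 buffer with MgCl2, TX-100 and DTT.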

B-Raf = B-Raf (Homo sapiens, UniProt P15056); test: Luciferase-coupled chemiluminescence kinase assay (ATP consumption), B-Raf; type: biochemical; settings: read-out: bRaf IC50
Procedure, shortened: as §1

Sequence of B-Raf (P15056 whole entry): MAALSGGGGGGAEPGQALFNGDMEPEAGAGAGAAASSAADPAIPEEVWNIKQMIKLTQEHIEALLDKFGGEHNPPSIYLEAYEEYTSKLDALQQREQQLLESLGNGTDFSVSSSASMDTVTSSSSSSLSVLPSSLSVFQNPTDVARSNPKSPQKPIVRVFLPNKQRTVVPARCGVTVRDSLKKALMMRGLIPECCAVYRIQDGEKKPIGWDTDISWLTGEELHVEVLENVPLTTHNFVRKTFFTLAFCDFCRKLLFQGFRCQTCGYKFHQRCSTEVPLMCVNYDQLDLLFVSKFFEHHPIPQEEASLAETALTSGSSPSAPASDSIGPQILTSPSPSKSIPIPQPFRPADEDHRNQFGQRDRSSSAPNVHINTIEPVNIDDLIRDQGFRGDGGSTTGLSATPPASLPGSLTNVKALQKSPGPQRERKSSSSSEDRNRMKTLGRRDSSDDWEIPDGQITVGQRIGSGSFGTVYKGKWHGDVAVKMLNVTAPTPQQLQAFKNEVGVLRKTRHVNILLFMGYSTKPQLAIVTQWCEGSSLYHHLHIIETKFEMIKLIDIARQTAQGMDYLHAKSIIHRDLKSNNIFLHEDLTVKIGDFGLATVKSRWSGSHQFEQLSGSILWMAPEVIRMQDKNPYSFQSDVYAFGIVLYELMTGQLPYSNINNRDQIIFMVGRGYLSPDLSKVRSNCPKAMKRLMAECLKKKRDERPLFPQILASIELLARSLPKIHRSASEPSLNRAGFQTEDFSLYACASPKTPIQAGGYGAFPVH
Sequence of c-Raf (P04049 whole entry): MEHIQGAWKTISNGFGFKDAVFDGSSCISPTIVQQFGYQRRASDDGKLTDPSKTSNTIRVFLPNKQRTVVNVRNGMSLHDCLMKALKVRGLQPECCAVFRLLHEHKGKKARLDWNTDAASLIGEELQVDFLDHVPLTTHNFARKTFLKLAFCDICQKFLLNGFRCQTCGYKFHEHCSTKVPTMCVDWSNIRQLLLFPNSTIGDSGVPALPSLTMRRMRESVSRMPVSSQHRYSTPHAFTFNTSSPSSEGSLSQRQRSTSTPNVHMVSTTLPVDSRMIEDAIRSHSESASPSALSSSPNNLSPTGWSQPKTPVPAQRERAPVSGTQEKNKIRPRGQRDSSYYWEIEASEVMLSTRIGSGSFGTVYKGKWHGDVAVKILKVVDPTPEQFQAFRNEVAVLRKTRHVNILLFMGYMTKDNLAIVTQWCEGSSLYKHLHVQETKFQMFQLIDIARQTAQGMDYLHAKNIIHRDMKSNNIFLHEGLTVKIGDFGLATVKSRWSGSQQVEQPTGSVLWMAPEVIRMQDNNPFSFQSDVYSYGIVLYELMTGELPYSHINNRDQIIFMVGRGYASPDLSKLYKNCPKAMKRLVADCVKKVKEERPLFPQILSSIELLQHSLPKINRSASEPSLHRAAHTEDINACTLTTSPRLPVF

SMILES	IC50 (c-Raf)	IC50 (B-Raf)
COC(=O)Nc1nc2cc(C3(O)c4ccccc4C(=O)N3Cc3ccccc3Cl)ccc2[nH]1 (stereo not drawn) [Entry 129, methyl (5-{2-[(2-chlorophenyl)methyl]-1-hydroxy-3-oxo-2,3-dihydro-1H-isoindol-1-yl}-1H-benzimidazol-2-yl)carbamate]	< 100 nM	100 to 1000 nM
COC(=O)Nc1nc2cc(C3(O)c4ccccc4C(=O)N3Cc3ccccc3Br)ccc2[nH]1 (stereo not drawn) [Entry 130, methyl (5-{2-[(2-bromophenyl)methyl]-1-hydroxy-3-oxo-2,3-dihydro-1H-isoindol-1-yl}-1H-benzimidazol-2-yl)carbamate]	100 to 1000 nM	100 to 1000 nM
COC(=O)Nc1nc2cc(C3(O)c4ccccc4C(=O)N3Cc3cccc(C)c3)ccc2[nH]1 (stereo not drawn) [Entry 131, methyl (5-{1-hydroxy-2-[(3-methylphenyl)methyl]-3-oxo-2,3-dihydro-1H-isoindol-1-yl}-1H-benzimidazol-2-yl)carbamate]	< 100 nM	< 100 nM
COC(=O)Nc1nc2cc(C3(O)c4ccccc4C(=O)N3Cc3ccc(C)cc3)ccc2[nH]1 (stereo not drawn) [Entry 132, methyl (5-{1-hydroxy-2-[(4-methylphenyl)methyl]-3-oxo-2,3-dihydro-1H-isoindol-1-yl}-1H-benzimidazol-2-yl)carbamate]	100 to 1000 nM	1000 to 10000 nM
COC(=O)Nc1nc2cc(C3(O)c4ccccc4C(=O)N3Cc3ccccc3C)ccc2[nH]1 (stereo not drawn) [Entry 133, methyl (5-{1-hydroxy-2-[(2-methylphenyl)methyl]-3-oxo-2,3-dihydro-1H-isoindol-1-yl}-1H-benzimidazol-2-yl)carbamate]	< 100 nM	< 100 nM
COC(=O)Nc1nc2cc(C3(O)c4ccccc4C(=O)N3c3cccc(Br)c3)ccc2[nH]1 (stereo not drawn) [Entry 134, methyl {5-[2-(3-bromophenyl)-1-hydroxy-3-oxo-2,3-dihydro-1H-isoindol-1-yl]-1H-benzimidazol-2-yl}carbamate]	< 100 nM	< 100 nM
COC(=O)Nc1nc2cc(C3(O)c4ccccc4C(=O)N3c3cccc(Cl)c3)ccc2[nH]1 (stereo not drawn) [Entry 135, methyl {5-[2-(3-chlorophenyl)-1-hydroxy-3-oxo-2,3-dihydro-1H-isoindol-1-yl]-1H-benzimidazol-2-yl}carbamate]	< 100 nM	< 100 nM
COC(=O)Nc1nc2cc(C3(O)c4ccccc4C(=O)N3c3cccc(F)c3)ccc2[nH]1 (stereo not drawn) [Entry 136, methyl {5-[2-(3-fluorophenyl)-1-hydroxy-3-oxo-2,3-dihydro-1H-isoindol-1-yl]-1H-benzimidazol-2-yl}carbamate]	< 100 nM	< 100 nM
COC(=O)Nc1nc2cc(C3(O)c4ccccc4C(=O)N3c3cccc(OC)c3)ccc2[nH]1 (stereo not drawn) [Entry 137, methyl (5-{1-hydroxy-2-[3-(methyloxy)phenyl]-3-oxo-2,3-dihydro-1H-isoindol-1-yl}-1H-benzimidazol-2-yl)carbamate]	< 100 nM	< 100 nM
COC(=O)Nc1nc2cc(C3(O)c4ccccc4C(=O)N3c3ccc(Br)cc3)ccc2[nH]1 (stereo not drawn) [Entry 138, methyl {5-[2-(4-bromophenyl)-1-hydroxy-3-oxo-2,3-dihydro-1H-isoindol-1-yl]-1H-benzimidazol-2-yl}carbamate]	100 to 1000 nM	100 to 1000 nM
COC(=O)Nc1nc2cc(C3(O)c4ccccc4C(=O)N3c3ccc(Cl)cc3)ccc2[nH]1 (stereo not drawn) [Entry 139, methyl {5-[2-(4-chlorophenyl)-1-hydroxy-3-oxo-2,3-dihydro-1H-isoindol-1-yl]-1H-benzimidazol-2-yl}carbamate]	< 100 nM	< 100 nM
COC(=O)Nc1nc2cc(C3(O)c4ccccc4C(=O)N3c3ccc(F)cc3)ccc2[nH]1 (stereo not drawn) [Entry 140, methyl {5-[2-(4-fluorophenyl)-1-hydroxy-3-oxo-2,3-dihydro-1H-isoindol-1-yl]-1H-benzimidazol-2-yl}carbamate]	< 100 nM	< 100 nM
COC(=O)Nc1nc2cc(C3(O)c4ccccc4C(=O)N3c3cc(C)cc(C)c3)ccc2[nH]1 (stereo not drawn) [Entry 141, methyl {5-[2-(3,5-dimethylphenyl)-1-hydroxy-3-oxo-2,3-dihydro-1H-isoindol-1-yl]-1H-benzimidazol-2-yl}carbamate]	< 100 nM	< 100 nM
COC(=O)Nc1nc2cc(C3(O)c4ccccc4C(=O)N3c3ccccc3F)ccc2[nH]1 (stereo not drawn) [Entry 142, methyl {5-[2-(2-fluorophenyl)-1-hydroxy-3-oxo-2,3-dihydro-1H-isoindol-1-yl]-1H-benzimidazol-2-yl}carbamate]	< 100 nM	< 100 nM
COC(=O)Nc1nc2cc(C3(O)c4ccccc4C(=O)N3c3ccccc3Cl)ccc2[nH]1 (stereo not drawn) [Entry 143, methyl {5-[2-(2-chlorophenyl)-1-hydroxy-3-oxo-2,3-dihydro-1H-isoindol-1-yl]-1H-benzimidazol-2-yl}carbamate]	< 100 nM	< 100 nM
COC(=O)Nc1nc2cc(C3(O)c4ccccc4C(=O)N3c3ccccc3C)ccc2[nH]1 (stereo not drawn) [Entry 144, methyl {5-[1-hydroxy-2-(2-methylphenyl)-3-oxo-2,3-dihydro-1H-isoindol-1-yl]-1H-benzimidazol-2-yl}carbamate]	< 100 nM	< 100 nM
COC(=O)Nc1nc2cc(C3(O)c4ccccc4C(=O)N3c3ccccc3OC)ccc2[nH]1 (stereo not drawn) [Entry 145, methyl (5-{1-hydroxy-2-[2-(methyloxy)phenyl]-3-oxo-2,3-dihydro-1H-isoindol-1-yl}-1H-benzimidazol-2-yl)carbamate]	< 100 nM	< 100 nM

Continued, values first:

IC50 (c-Raf)	IC50 (B-Raf)	SMILES
100 to 1000 nM	100 to 1000 nM	COC(=O)Nc1nc2cc(C3(O)c4ccccc4C(=O)N3c3ccc(C)cc3)ccc2[nH]1 (stereo not drawn) [Entry 146, methyl {5-[1-hydroxy-2-(4-methylphenyl)-3-oxo-2,3-dihydro-1H-isoindol-1-yl]-1H-benzimidazol-2-yl}carbamate]
< 100 nM	< 100 nM	COC(=O)Nc1nc2cc(C3(O)c4ccccc4C(=O)N3c3cccc(C(F)(F)F)c3)ccc2[nH]1 (stereo not drawn) [Entry 147, methyl (5-{1-hydroxy-3-oxo-2-[3-(trifluoromethyl)phenyl]-2,3-dihydro-1H-isoindol-1-yl}-1H-benzimidazol-2-yl)carbamate]
< 100 nM	< 100 nM	CC#CCOC(=O)Nc1nc2cc(C3(O)c4ccccc4C(=O)N3[C@H](C)c3ccccc3)ccc2[nH]1 (stereo partly drawn) [Entry 148, but-2-yn-1-yl (5-{1-hydroxy-3-oxo-2-[(1R)-1-phenylethyl]-2,3-dihydro-1H-isoindol-1-yl}-1H-benzimidazol-2-yl)carbamate]
< 100 nM	< 100 nM	CCNC(=O)Nc1nc2cc(C3(O)c4ccccc4C(=O)N3Cc3ccccc3)ccc2[nH]1 (stereo not drawn) [Entry 149, N-ethyl-N′-{5-[1-hydroxy-3-oxo-2-(phenylmethyl)-2,3-dihydro-1H-isoindol-1-yl]-1H-benzimidazol-2-yl}urea]
< 100 nM	< 100 nM	C[C@H](c1ccccc1)N1C(=O)c2ccccc2C1(O)c1ccc2[nH]c(NC(=O)OCc3ccccc3)nc2c1 (stereo partly drawn) [Entry 150, phenylmethyl (5-{1-hydroxy-3-oxo-2-[(1R)-1-phenylethyl]-2,3-dihydro-1H-isoindol-1-yl}-1H-benzimidazol-2-yl)carbamate]
< 100 nM	< 100 nM	COC(=O)Nc1nc2ccc(C3(O)c4ccccc4C(=O)N3c3cc(N)cc(Cl)c3)cc2[nH]1 (stereo not drawn) [Entry 151, methyl {6-[2-(3-amino-5-chlorophenyl)-1-hydroxy-3-oxo-2,3-dihydro-1H-isoindol-1-yl]-1H-benzimidazol-2-yl}carbamate]
100 to 1000 nM	< 100 nM	O=C(Nc1nc2cc(C3(O)c4ccccc4C(=O)N3Cc3ccccc3)ccc2[nH]1)OCC1CCNCC1 (stereo not drawn) [Entry 152, piperidin-4-ylmethyl {5-[1-hydroxy-3-oxo-2-(phenylmethyl)-2,3-dihydro-1H-isoindol-1-yl]-1H-benzimidazol-2-yl}carbamate]
100 to 1000 nM	100 to 1000 nM	COC(=O)Nc1nc2cc(C3(O)c4ccccc4C(=O)N3CC3CC3)ccc2[nH]1 (stereo not drawn) [Entry 153, methyl {5-[2-(cyclopropylmethyl)-1-hydroxy-3-oxo-2,3-dihydro-1H-isoindol-1-yl]-1H-benzimidazol-2-yl}carbamate]
1000 to 10000 nM	1000 to 10000 nM	COC(=O)Nc1nc2cc(C3(O)c4ccccc4C(=O)N3CC(C)(C)C)ccc2[nH]1 (stereo not drawn) [Entry 154, methyl {5-[2-(2,2-dimethylpropyl)-1-hydroxy-3-oxo-2,3-dihydro-1H-isoindol-1-yl]-1H-benzimidazol-2-yl}carbamate]
< 100 nM	< 100 nM	COC(=O)Nc1nc2cc(C3(O)c4ccccc4C(=O)N3c3cc(Cl)cc(Cl)c3)ccc2[nH]1 (stereo not drawn) [Entry 155, methyl {5-[2-(3,5-dichlorophenyl)-1-hydroxy-3-oxo-2,3-dihydro-1H-isoindol-1-yl]-1H-benzimidazol-2-yl}carbamate]
100 to 1000 nM	100 to 1000 nM	COC(=O)Nc1nc2cc(C3(O)c4ccccc4C(=O)N3c3cc(F)cc(F)c3)ccc2[nH]1 (stereo not drawn) [Entry 156, methyl {5-[2-(3,5-difluorophenyl)-1-hydroxy-3-oxo-2,3-dihydro-1H-isoindol-1-yl]-1H-benzimidazol-2-yl}carbamate]
< 100 nM	< 100 nM	CCNC(=O)Nc1nc2cc(C3(O)c4ccccc4C(=O)N3[C@H](C)c3ccccc3)ccc2[nH]1 (stereo partly drawn) [Entry 157, N-ethyl-N′-(5-{1-hydroxy-3-oxo-2-[(1R)-1-phenylethyl]-2,3-dihydro-1H-isoindol-1-yl}-1H-benzimidazol-2-yl)urea]
< 100 nM	< 100 nM	CN(C)C(=O)Nc1nc2cc(C3(O)c4ccccc4C(=O)N3Cc3ccccc3)ccc2[nH]1 (stereo not drawn) [Entry 158, N′-{5-[1-hydroxy-3-oxo-2-(phenylmethyl)-2,3-dihydro-1H-isoindol-1-yl]-1H-benzimidazol-2-yl}-N,N-dimethylurea]
